From US20240051952A1, “HMOX1 INDUCERS” (Mitobridge Inc., priority 2019, published 2024)
Entries after “also recorded” stand apart in the source; their conditions may differ.

Legend:
[1] = system: FTH1; experiment: FTH1 mRNA expression in HepG2 cells (Nanostring); type: cell-based, human; details: 24 hours treatment
Procedure: RNA Isolation and Quantification of Gene Expression
HepG2 cells were seeded at 250 k/well in 12-well tissue culture plates coated with collagen (collagen I, rat tail (thin plate coating); ENZO Life Sciences) for approximately 24 hours. The seeded cells were then treated with dose titration of the compound of Example 17 or dimethyl fumarate (DMF) (a Nrf2 activator; Fisher Scientific) via media change, with biological triplicates performed for each treatment. After approximately 24 hours of treatment, cells were visually inspected to confirm that no toxicity occurred with compound treatment. The treated cells were washed with PBS, aspirated, parafilmed and frozen at −80° C. prior to RNA isolation. RNA was isolated using Machery-Nagel isolation kit (NucleoSpin® RNA: catalog 740955.250) and then quantitated using ThermoFisher Nanodrop.
RNA was diluted for Nanostring gene expression analysis. The diluted RNA at an input of 200ng RNA was run on a Nanostring instrument, which was supported with nCounter® SPRINT Profiler System and nSolver4.0 Software, nCounter® SPRINT Cartridge, nCounter® SPRINT Reagent Pack, and nCounter© SPRINT Hybridization Buffer. Analysis was done manually using raw data obtained from nSolver4.0 Software. CLTC, POLR2A, RPL27 and TBP were used as reference genes for normalization. Data was graphed as fold change compared to DMSO treatment. […]

[2] = system: HbSS Townes sickle mice; experiment: F-cells in HbSS Townes sickle mice; type: in vivo, mouse
Source text: Blood smears were made using heparinized whole blood for F-cells staining. Stained F-cells and total red blood cells were counted on the blood smears in four fields; mean=77 red blood cells/field. F-cells are expressed as a percentage of total red blood cells. Values are means+SD. One-Way ANOVA with Dunnett's Multiple comparison to Vehicle **p≤0.01, ***p≤0.001, ****p≤0.0001
Dosing Scheme of HMOX Inducers to HbSS Townes Sickle Mice
HbSS Townes sickle mice were oral gavaged once daily with Vehicle or the compound of Example 17 listed below for 8 days. To minimize experimental inconsistency, fresh formulation was prepared every day and vortexed prior to drawing test article into syringe for each dosing, and dosing was performed by the same individual throughout the day. The last-day dose was administered by oral gavage 4 hours prior to hemin infusion described below. • 1. […]
F-cells were stained on whole blood smears by the Kleihauer-Betke method using a fetal cell stain kit (Simmler) according to the manufacturer's instructions. F-cells and total erythrocytes were counted in 4 separate microscopic fields at 100× magnification for each mouse. The F-cells were expressed as a percentage of total erythrocytes (i.e., red blood cells). […]

[3] = system: Primary human pulmonary artery endothelial cells (HPAEC); experiment: Glutathione (GSH) levels in primary human endothelial cells under hemin stress; type: cell-based
Procedure: Example 149. Glutathione (GSH) Levels in Primary Human Endothelial Cells
Primary human pulmonary artery endothelial cells (HPAEC) (Lonza #CC-2530) cultured in endothelial cell growth medium-2 (EGM2 media, Lonza #CC-3162) were seeded in white 96-well plate (Corning® #3610) at 12.5 k cells per well and placed at 37° C. in 5% CO2. 18-24 hr post seeding, cells were treated with the compound of Example 17 via media change. 24 hr post treatment with the compound, cells were treated using a freshly prepared hemin stock (Sigma-Aldrich #51280 in 0.1N NaOH) alone or with the compound of Example 17. […] Media was aspirated off and GSH-Glo™ Glutathione Assay (Promega #V6911) was run following the manufacturer's protocol. White bottom plate seal (PerkinElmer #6005199) was used during read. Analysis was done using Softmax Pro.

[4] = system: VCAM-1; experiment: VCAM-1 gene expression in TNFα-stimulated primary human endothelial cells; type: cell-based; details: HPAEC
Source text: Example 150. Gene Expression in Primary Human Endothelial Cells
Inflammatory conditions in endothelial cells increase expression of adhesion molecules, such as VCAM-1, ICAM-1 and E-selectin through NF-kB signaling. HMOX1 −/− endothelial cells show increased expression of VCAM-1 in response to TNF stimulation, as compared to HMOX +/+endothelial cells. See Seldon et al., J Immunol Dec. 1, 2007, 179 (11) 7840-7851.
Primary human pulmonary artery endothelial cells (HPAEC) (Lonza #CC-2530) were seeded in 12-well plates (TrueLine #TR5001) at 200 k cells per well and placed at 37° C. in 5% CO2. 18-24 hr post seeding, cells were treated with the compound of Example 17 via media change. 24 hr post treatment with the compound, cells were treated with 10 ng/mL TNFα (Invitrogen #PHC3015 in H2O) alone or with the compound of Example 17. […] 20ng cDNA was mixed with water, iQ™ SYBR® Green Supermix (BioRad #170-8886), and 300 nM primer (IDT #NM_001078) for a total 10ul reaction and loaded into 384-well white qPCR plates and subsequently analyzed using BioRad CFX384. […] To calculate fold change, the ΔCt on a per sample basis was calculated as Ct (Gene of interest)—Ct (Average of reference genes). The ΔΔCt was then calculated as ΔCt (experimental sample)—Average ΔCt (control group). […]

Cn1c(Nc2nc3ccccc3o2)nc2cc(C(=O)NCCOCCO)ccc21 [Example 17, 2-(benzo[d]oxazol-2-ylamino)-N-(2-(2-hydroxyethoxy)ethyl)-1-methyl-1H-benzo[d]imidazole-5-carboxamide]
FTH1 expression fold increase [1]: comparable fold increases
percent F-cells vs vehicle ([2]; 10, 25, 50 mg/kg PO once daily 8 days): significantly increased; also recorded: percentage of F-cells increase
percent F-cells ([2]; all doses tested (10, 25, 50 mg/kg PO, 8 days), % of total red blood cells): 55-70%
GSH levels / protection from hemin mediated oxidative stress ([3]; 24 hr pre-incubation, 30 min hemin stress): protects these cells from hemin mediated oxidative stress
toxicity, visual inspection of cells ([3]; after 30 min of hemin stress): no toxicity being noted
TNF-α mediated endothelial cell activation (VCAM-1 expression) ([4]; 24 hr pre-treatment, 10 ng/mL TNFα 4 hours): reduced this TNF-α mediated endothelial cell activation
toxicity, visual inspection of cells ([4]; after 4 hours of TNFα treatment): no toxicity being noted
